Assay results from PMC6901946, “Intranasal MMI-0100 Attenuates Aβ1−42- and LPS-Induced Neuroinflammation and Memory Impairments via the MK2 Signaling Pathway” (Frontiers in Immunology, 2019).
Ends that are not written are not given here.

How the values were obtained:
[1] = test system: TNF-α, IL-1β, IL-6; test: ELISA of pro-inflammatory cytokines in hippocampus; type: in vivo, mouse; conditions: Aβ1−42-induced model, Figure 6, n = 5
Protocol: Total proteins from the hippocampus of mice in each group were extracted with RIPA lysis buffer containing protease inhibitor (Gibco, Thermo Fisher Scientific, Inc.). Total proteins were determined using a bicinchoninic acid protein assay kit (Sangon Biotech Co., Ltd.). IL-1β, IL-6, and TNF-α in the hippocampus tissue were measured using ELISA kits (cat number: E-EL-M0049 for TNF-α, cat number: E-EL-M0044 for IL-6, cat number: E-EL-M0037 for IL-1β, Elabscience), according to the manufacturer's instructions.

[2] = target: T1, MK2 (Mus musculus, UniProt P49138); test: Western blotting of pMK2 in hippocampus; type: in vivo; conditions: Aβ1−42-induced model; Figure 7; n = 5
T1 construct: the protein samples (40 μg per lane) isolated from the hippocampus were separated by SDS-PAGE; from tissue; host or cells: mouse hippocampus
T1 sequence (P49138 whole entry): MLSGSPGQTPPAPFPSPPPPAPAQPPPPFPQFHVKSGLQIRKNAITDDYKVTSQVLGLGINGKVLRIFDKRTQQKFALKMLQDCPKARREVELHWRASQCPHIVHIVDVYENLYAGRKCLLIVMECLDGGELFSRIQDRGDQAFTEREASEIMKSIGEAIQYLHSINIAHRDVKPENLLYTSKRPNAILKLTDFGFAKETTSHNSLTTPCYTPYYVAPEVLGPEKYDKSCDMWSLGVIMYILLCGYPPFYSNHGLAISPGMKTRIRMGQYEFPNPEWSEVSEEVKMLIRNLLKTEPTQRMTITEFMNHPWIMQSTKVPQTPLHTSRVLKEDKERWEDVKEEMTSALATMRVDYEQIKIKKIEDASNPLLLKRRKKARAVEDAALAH
Protocol: Western blotting was carried out as per the manufacturer's instructions (Bio-Rad Laboratories, Inc). Protein was extracted with RIPA buffer containing protease inhibitor (Gibco; Thermo Fisher Scientific, Inc.). The protein concentration was determined using a BCA protein assay kit (Pierce; Thermo Fisher Scientific, Inc.). Briefly, the protein samples (40 μg per lane) isolated from the hippocampus were separated by SDS-PAGE and electrophoretically transferred onto polyvinylidene fluoride membranes. Membranes were blocked with 5% skimmed milk for 2 h and incubated overnight at 4°C with specific first antibodies. GAPDH was used as a loading control. Subsequently, the membranes were incubated with the corresponding secondary antibodies and the reaction was visualized with chemiluminescence reagents provided with an ECL kit (Thermo) and exposed to a film. The intensity of the blots was quantified with densitometry (Image J 1.49v; National Institutes of Health).

[3] = test system: Kunming mice; test: Object location recognition (OLR) task; type: in vivo, mouse; conditions: Aβ1−42 800 pmol i.c.v. 14 days before, tested after 24 h
Protocol: (§1) MMI-0100 or vehicle was infused into the brain by using a 32-gauge stainless steel syringe needle placed in and projecting 0.5 mm below the tip of the cannula for 2 min. This needle was connected via a PE tube to a 5-μl Hamilton syringe mounted to a Microdrive pump (KD Scientific). To allow the drug to diffuse, the infusion syringe remained in place for 1 min. For the lateral ventricle, injection volume is 2 μl, and for the bilateral hippocampus CA1, injection volume is 0.5 μl/side. After drug administration, each mouse was subjected to behavioral testing immediately. In addition, the selection of the doses was based on the previous reports and our preliminary observations ([24]).
(§2) The behavior experiments were carried out 15 min after i.c.v. injection of MMI-0100, or 2 h after intranasal infusion of MMI-0100. The cytokines were measured 15 min after i.c.v. injection of MMI-0100.
(§3) The procedures for the novel object recognition (NOR) and object location recognition (OLR) tasks were described in our previous report ([23], [30]). The videos for NOR and OLR tasks were shown in Supplementary Material. […] The discrimination index (DI) in the memory retention phase was calculated as the percentage of the time a mouse explored the new object or location over the total time the mouse explored the two objects or locations. […]

[4] = test system: IL-6, IL-1β, TNF-α, iNOS; test: Quantitative PCR of pro-inflammatory factors in hippocampus; type: in vivo, mouse; conditions: Aβ1−42-induced model; 15 min after i.c.v. MMI-0100; Figure 5; n = 5
Protocol: Amnesia was caused by Aβ1−42 injection for 14 days or LPS infusion for 3 days; 15 min after injection of MMI-0100 or vehicle, the hippocampus was removed from mice. Real-time RT-PCR was performed according to a previous report ([31]). Total RNA was extracted using Trizol reagent (TaKaRa) and 1 μg of RNA in each sample was reversely transcribed into a single-stranded complementary DNA with the 5X PrimeScript RT Master Mix (TaKaRa) following the manufacturer's instructions. Amplification was carried out in a 25 μl reaction mixture consisting of 12.5 μl of 2X SYBR Premis Ex TaqTM II, 2 μl of cDNA, 1 μl of forward primer, 1 μl of reverse primer, and 8.5 μl of H2O, and was run under the following conditions: 95°C for 30 s, followed by 40 cycles of 95°C for 5 s, 58°C for 30 s, and 72°C for 30 s. The primer pair P1/P2 was used in the RT-PCR assay to identify the expression level of TNF-α, IL-6, IL-1β, and iNOS gene in vehicle + vehicle-, Aβ1−42 + vehicle-, Aβ1−42 + MMI-0100-, LPS + vehicle-, and LPS + MMI-0100-treated groups.

[5] = test system: Kunming mice; test: Novel object recognition (NOR) task; type: in vivo, mouse; conditions: Aβ1−42 800 pmol i.c.v. 14 days before, tested after 24 h
Protocol: as §1, §2, §3

[6] = in vitro; conditions: mouse, brain homogenates
Protocol: The peptide levels after incubation were expressed as percent parent remaining. Points indicate the means and vertical lines indicate the SEM of 3 separate experiments.

[7] = intranasal experiment (Figure 10), MMI-0100 25 nmol intranasal or vehicle

Row | Substance | protein levels of IL-6, IL-1β and TNF-α in hippocampus [1] | phosphorylation of MK2 (pMK2/tMK2) in hippocampus [2] | discrimination index (DI), OLR ([3]; Figure 3A, MMI-0100 5 nmol i.c.v. or vehicle, chance level 50%) | discrimination index (DI), OLR [3, 7] | mRNA level of IL-6, IL-1β, TNF-α and iNOS in hippocampus [4] | discrimination index (DI), NOR ([5]; Figure 2A, MMI-0100 5 nmol i.c.v. or vehicle, chance level 50%) | discrimination index (DI), NOR [5, 7] | half-life [6]
1 | Aβ1−42: Aβ1−42 peptide purchased from Hangzhou Chinese Peptide Biochemical Company, oligomer used to induce AD model | higher | significantly up-regulated | 48.04% | 46.31% | dramatically increased | 50.96% | 50.98% | 
2 | YARAAARQARAKALARQLGVAA [MMI-0100] |  |  |  |  |  |  |  | ~2.69 h
